Measurements published in patent US20250144067A1, “PERSONALIZED STARVATION THERAPY FOR CANCER” (Faeth Therapeutics, Inc., priority 2021, published 2025).
Structures can show the parent of a compound that is named as a salt. Where two headings read alike, the source gives them in different places.

Legend:
[1] = test system: NCI-H292 lung cancer cells; assay: FDA drug screening, complete media vs cholesterol-free media without statin (TABLE 1); type: cell-based, human
[2] = test system: NCI-H292 lung cancer cells; assay: FDA drug screening, complete media vs cholesterol-free media with simvastatin (TABLE 2); type: cell-based, human
[3] = NCI-H292 cells, cholesterol-free media without statin, FDA drug library screen
[4] = NCI-H292 cells, complete media, FDA drug library screen
[5] = complete vs cholesterol-free media, >0 enhanced anti-cancer activity, about 0 neutral, <0 antagonist
[6] = NCI-H292 cells, FDA drug library screen, cholesterol-free media with simvastatin 0.04 μM
[7] = NCI-H292 cells, FDA drug library screen, complete media
[8] = complete media vs cholesterol-free media + simvastatin (0.04 μM), >0 enhanced anti-cancer activity, about 0 neutral, <0 antagonist
[9] = NCI-H292 cells, cholesterol-free media without statin
[10] = complete vs cholesterol-free media, greater than 0 enhanced anti-cancer activity, about 0 neutral, below 0 antagonists
[11] = NCI-H292 cells, cholesterol-free media with simvastatin 0.04 μM, FDA drug library screen (TABLE 2)
[12] = NCI-H292 cells, complete media, FDA drug library screen (TABLE 2)
[13] = complete media minus cholesterol-free media + simvastatin (0.04 μM), >0 enhanced anti-cancer activity, about 0 neutral, <0 antagonist
[14] = Complete minus Cholesterol-free, […]
[15] = NCI-H292 cells, FDA drug library screen, cholesterol-free media without statin
[16] = NCI-H292 cells, drug in cholesterol-free media with simvastatin 0.04 μM
[17] = NCI-H292 cells, drug in complete media
[18] = complete media vs cholesterol-free media + simvastatin (0.04 μM), […]
[19] = NCI-H292 cells in cholesterol-free media without statin
[20] = NCI-H292 cells in complete media
[21] = NCI-H292 cells, cholesterol-free media with simvastatin 0.04 μM, cell growth value in FDA drug screen
[22] = NCI-H292 cells, complete media, cell growth value in FDA drug screen
[23] = complete media minus cholesterol-free media + simvastatin, >0 enhanced anti-cancer activity, about 0 neutral, <0 antagonist
[24] = complete vs cholesterol-free media, […]
[25] = Complete minus Cholesterol-free, >0 enhanced anti-cancer activity, about 0 neutral, <0 antagonist
[26] = NCI-H292 cells, FDA library drug in cholesterol-free media with simvastatin 0.04 μM
[27] = NCI-H292 cells, FDA library drug in complete media
[28] = Complete minus Cholesterol-free, greater than 0 enhanced anti-cancer activity, about 0 neutral, below 0 antagonists
[29] = Complete minus Cholesterol-free, greater than 0 enhanced anti-cancer activity, about 0 neutral, below 0 antagonist

Nc1nc(/C(=C/CC(=O)O)C(=O)N[C@@H]2C(=O)N3C(C(=O)O)=CCS[C@H]23)cs1 [Ceftibuten (dihydrate)]
Cholesterol-free [1, 3]: 0.6461 | Complete [1, 4]: 1.242 | Difference [1, 5]: 0.60 | Cholesterol-free media + simvastatin (0.04 μM) [2, 6]: 1.353 | Complete Media [2, 7]: 1.195 | Difference [2, 8]: −0.16

COc1ccc2c(c1)c(CC(=O)O)c(C)n2C(=O)c1ccc(Cl)cc1 [Indomethacin (sodium hydrate)]
Cholesterol-free [1, 9]: 1.164 | Complete ([1]; NCI-H292 cells, complete media): 0.8005 | Difference [1, 10]: −0.36 | Cholesterol-free media + simvastatin (0.04 μM) [2, 11]: 0.9744 | Complete Media [2, 12]: 0.911 | Difference [2, 13]: −0.06

Trelagliptin (succinate)
Cholesterol-free [1, 9]: 1.469 | Complete ([1]; NCI-H292 cells, complete media): 1.135 | Difference [1, 10]: −0.33 | Cholesterol-free media + simvastatin (0.04 μM) [2, 6]: 1.757 | Complete Media [2, 7]: 1.617 | Difference [2, 8]: −0.14

O.Sc1ncnc2nc[nH]c12 [6-Mercaptopurine hydrate]
Difference [1, 14]: −0.11 | Cholesterol-free [1, 15]: 0.3886 | Complete [1, 7]: 0.2796 | Cholesterol-free media + simvastatin (0.04 μM) [2, 16]: 0.9123 | Complete Media [2, 17]: 0.7458 | Difference [2, 18]: −0.17

C1CCN2C[C@@H]3C[C@@H](CN4CCCC[C@@H]34)[C@H]2C1 [(−)-Sparteine]
Difference [1, 14]: −0.60 | Cholesterol-free [1, 19]: 1.432 | Complete [1, 20]: 0.8366 | Cholesterol-free media + simvastatin (0.04 μM) ([2]; NCI-H292 cells, cholesterol-free media with simvastatin 0.04 μM, […]): 1.054 | Complete Media ([2]; NCI-H292 cells, complete media, […]): 1.106 | Difference ([2]; complete media minus cholesterol-free media + simvastatin, […]): 0.05

COCC1=C(C(=O)OC(C)OC(=O)OC(C)C)N2C(=O)[C@@H](NC(=O)/C(=N\OC)c3csc(N)n3)[C@H]2SC1 (stereo partly shown) [Cefpodoxime Proxetil]
Cholesterol-free [1, 3]: 1.085 | Complete [1, 4]: 1.311 | Difference [1, 5]: 0.23 | Cholesterol-free media + simvastatin (0.04 μM) [2, 21]: 1.112 | Complete Media [2, 22]: 1.162 | Difference [2, 23]: 0.05

Amlodipine (besylate)
Cholesterol-free [1]: 1.359 | Difference [1]: −0.33 | Cholesterol-free media + simvastatin (0.04 μM) [2]: 1.186 | Difference [2]: −0.19

CCOC(=O)CCC(=O)O[C@H]1[C@H](O[C@@H]2[C@@H](C)[C@H](O[C@H]3C[C@@](C)(OC)[C@@H](O)[C@H](C)O3)[C@@H](C)C(=O)O[C@H](CC)[C@@](C)(O)[C@H](O)[C@@H](C)C(=O)[C@H](C)C[C@@]2(C)O)O[C@H](C)C[C@@H]1N(C)C [Erythromycin Ethylsuccinate]
Cholesterol-free [1, 9]: 1.248 | Complete ([1]; NCI-H292 cells, complete media): 0.8907 | Difference [1, 24]: −0.36 | Cholesterol-free media + simvastatin (0.04 μM) [2, 6]: 1.069 | Complete Media [2, 7]: 0.9797 | Difference [2, 18]: −0.09

CC(C)[N+](C)(CCOC(=O)C1c2ccccc2Oc2ccccc21)C(C)C.[Br-] [Propantheline (bromide)]
Difference [1, 25]: −0.02 | Cholesterol-free [1, 3]: 1.311 | Complete [1, 4]: 1.294 | Cholesterol-free media + simvastatin (0.04 μM) [2, 21]: 1.413 | Complete Media [2, 22]: 1.449 | Difference [2, 23]: 0.04

Clc1ccc(CO/N=C(\Cn2ccnc2)c2ccc(Cl)cc2Cl)c(Cl)c1 [Oxiconazole nitrate]
Difference [1, 25]: 0.00 | Cholesterol-free [1, 3]: 0.7425 | Complete [1, 4]: 0.7401 | Cholesterol-free media + simvastatin (0.04 μM) [2, 6]: 0.3071 | Complete Media [2, 7]: 1.067 | Difference [2, 23]: 0.76

Inulin
Difference [1, 14]: −0.02 | Cholesterol-free [1, 3]: 0.9221 | Complete [1, 4]: 0.9055 | Cholesterol-free media + simvastatin (0.04 μM) [2, 16]: 1.179 | Complete Media [2, 17]: 0.9318 | Difference [2, 18]: −0.25

CC(C)(C)c1ccc(C(O)CCCN2CCC(C(O)(c3ccccc3)c3ccccc3)CC2)cc1 (stereo not shown) [Terfenadine]
Cholesterol-free [1, 9]: 1.145 | Complete ([1]; NCI-H292 cells, complete media): 0.8219 | Difference [1, 10]: −0.32 | Cholesterol-free media + simvastatin (0.04 μM) [2, 21]: 0.9762 | Complete Media [2, 22]: 1.013 | Difference [2, 23]: 0.04

O=[N+]([O-])c1cn2c(n1)OC[C@@H](OCc1ccc(OC(F)(F)F)cc1)C2 [Pretomanid]
Difference [1, 25]: −0.21 | Cholesterol-free [1, 9]: 1.474 | Complete ([1]; NCI-H292 cells, complete media): 1.26 | Cholesterol-free media + simvastatin (0.04 μM) [2, 26]: 1.251 | Complete Media [2, 27]: 0.9046 | Difference [2, 8]: −0.35

CC(C)OC(=O)[C@H](C)N[P@](=O)(OC[C@H]1O[C@@H](n2ccc(=O)[nH]c2=O)[C@](C)(F)[C@@H]1O)Oc1ccccc1 [Sofosbuvir]
Cholesterol-free [1, 9]: 1.138 | Complete ([1]; NCI-H292 cells, complete media): 0.6875 | Difference [1, 24]: −0.45 | Cholesterol-free media + simvastatin (0.04 μM) [2, 11]: 0.9955 | Complete Media [2, 12]: 0.9628 | Difference ([2]; complete media minus cholesterol-free media + simvastatin (0.04 μM), […]): −0.03

CCCN[C@@H]1CCc2nc(N)sc2C1 [Dexpramipexole (dihydrochloride)]
Cholesterol-free [1, 9]: 0.9915 | Complete ([1]; NCI-H292 cells, complete media): 0.5799 | Difference [1, 10]: −0.41 | Cholesterol-free media + simvastatin (0.04 μM) [2, 11]: 1.099 | Complete Media [2, 12]: 1.11 | Difference [2, 13]: 0.01

Cc1cc(C#N)cc(C)c1Oc1nc(Nc2ccc(C#N)cc2)nc(N)c1Br [Etravirine]
Difference [1, 28]: −0.49 | Cholesterol-free [1, 19]: 1.424 | Complete [1, 20]: 0.9362 | Cholesterol-free media + simvastatin (0.04 μM) [2, 11]: 0.8346 | Complete Media [2, 12]: 0.8071 | Difference [2, 13]: −0.03

NC(=O)c1cccc2cn(-c3ccc([C@@H]4CCCNC4)cc3)nc12 [Niraparib (hydrochloride)]
Difference [1, 28]: −0.48 | Cholesterol-free [1, 19]: 1.435 | Complete [1, 20]: 0.9534 | Cholesterol-free media + simvastatin (0.04 μM) [2, 21]: 0.7422 | Complete Media [2, 22]: 0.838 | Difference [2, 23]: 0.10

Nc1ccn(C[C@@H](CO)OCP(=O)(O)O)c(=O)n1 [Cidofovir]
Cholesterol-free [1, 9]: 2.027 | Complete ([1]; NCI-H292 cells, complete media): 1.556 | Difference [1, 10]: −0.47 | Cholesterol-free media + simvastatin (0.04 μM) [2, 21]: 0.9844 | Complete Media [2, 22]: 1.01 | Difference [2, 23]: 0.03

CC(C)N(CCC(C(N)=O)(c1ccccc1)c1ccccn1)C(C)C (stereo not shown) [Disopyramide]
Difference [1, 29]: −0.15 | Cholesterol-free [1, 15]: 1.106 | Complete [1, 7]: 0.9575 | Cholesterol-free media + simvastatin (0.04 μM) [2, 11]: 1.301 | Complete Media [2, 12]: 1.257 | Difference [2, 13]: −0.04

NC(=O)N1c2ccccc2CC(=O)c2ccccc21 [Oxcarbazepine]
Cholesterol-free [1, 3]: 0.8341 | Complete [1, 4]: 1.538 | Difference [1, 5]: 0.70 | Cholesterol-free media + simvastatin (0.04 μM) [2, 26]: 1.305 | Complete Media [2, 27]: 0.9097 | Difference [2, 8]: −0.40

CCCCN1C[C@H](O)[C@@H](O)[C@H](O)[C@H]1CO [Miglustat (hydrochloride)]
Difference [1, 28]: −0.51 | Cholesterol-free [1, 19]: 1.836 | Complete [1, 20]: 1.323 | Cholesterol-free media + simvastatin (0.04 μM) [2, 6]: 0.8113 | Complete Media [2, 7]: 0.7082 | Difference [2, 8]: −0.10

O=c1ccn([C@@H]2O[C@H](COP(=O)([O-])OP(=O)([O-])OP(=O)([O-])OP(=O)([O-])OC[C@H]3O[C@@H](n4ccc(=O)[nH]c4=O)[C@H](O)[C@@H]3O)[C@@H](O)[C@H]2O)c(=O)[nH]1.[Na+].[Na+].[Na+].[Na+] [Diquafosol (tetrasodium)]
Difference [1, 29]: −0.16 | Cholesterol-free [1, 15]: 0.9096 | Complete [1, 7]: 0.7536 | Cholesterol-free media + simvastatin (0.04 μM) [2, 6]: 1.438 | Complete Media [2, 7]: 1.601 | Difference [2, 23]: 0.16

CC(C)=CCC/C(C)=C/CC/C(C)=C/CCC(=O)OC/C=C(\C)CCC=C(C)C [Gefarnate]
Cholesterol-free [1]: 1.413 | Complete [1]: 0.9135 | Difference [1]: −0.50 | Cholesterol-free media + simvastatin (0.04 μM) [2]: 1.714 | Complete Media [2]: 1.906 | Difference [2]: 0.19
